{"source": "patent US20150336996A1", "about": "“MANGANESE-BASED MAGNETIC RESONANCE CONTRAST AGENTS” (THE GENERAL HOSPITAL CORPORATION, priority 2013, published 2015)", "format_in_all_cases": "physicochemical", "key": {"[1]": {"test": "T1 relaxivity (r1) by inversion recovery on Bruker mq60 Minispec, 1.4 T, 37° C., TRIS buffer pH 7.4", "protocol": "(§1) Liquid chromatography-electrospray mass spectrometry (LC-MS) was performed using an Agilent 1100 Series apparatus with an LC/MSD trap and Daly conversion dynode detector with UV detection at 220, 254 and 280 nm. The methods used on this system are as follows: (a) Luna C18 column (100×2 mm); eluent A: H2O/0.1% formic acid, B: MeCN/0.1% formic acid; gradient: 5% B to 95% B over 9 minutes; flow rate 0.8 mL/min (used for characterization of organic compounds), and (b) Kromasil C18 column (250×4.6 mm); eluent C: 95% MeCN/5% 10 mM ammonium acetate, D: 10 mM ammonium acetate; gradient 5% C to 8% C over 14 minutes; flow rate 0.8 ml/min (used for characterization of manganese complexes). Reversed-phase semipreparative purification was performed on a Rainin Dynamax HPLC system with UV detection at 254 nm using a Polaris C18 column. The method used for purification is as follows: The mobile phase A was 50 mM ammonium acetate buffer, pH 6.5 and mobile phase B was a mixture of 5% 50 mM ammonium acetate buffer, pH 6.5/95% MeCN. Starting from 5% B, the fraction of B increased to 8% over 23 minutes. The column was washed with 100% B for 2 minutes and then ramped to 5% B. The system was re-equilibrated at 5% B for 3 minutes. Relaxivity measurements were performed on a Bruker mq60 Minispec at 1.4 T and 37° C. Manganese concentrations were determined using an Agilent 7500a ICP-MS system. All samples were diluted with 0.1% Triton X-100 in 5% nitric acid containing 20 ppb of Lu (as internal standard). The ratio of Mn (54.94)/Lu(174.97) was used to quantify the manganese concentration. A linear calibration curve ranging from 0.1 ppb to 200 ppb was generated daily for the quantification. UV-Vis spectra were recorded on a SpectraMax M2 spectrophotometer using quartz cuvette with a 1 cm path length. Cyclic voltammetry of Mn^IIHBET, Mn^IIEDTA and Mn^IIIHBET was recorded using a Nuvant EZstat pro potentiostat in TRIS buffer (pH=7.4), containing 0.5M KNO3 as supporting electrolyte, at 100 mVs-1 scan rate. Glassy carbon was used as the working electrode, Ag/AgCl served as the reference electrode and Pt wire was used as the auxiliary electrode. The K4FeCN6/K3FeCN6 couple was used as the internal standard.\nT1 was measured with an inversion recovery pulse sequence taking 10 inversion times. Relaxivity was determined from the slope of a plot of 1/T1 vs. concentration of in TRIS buffer, pH=7.4 at 37° C. The concentration of manganese in each stock solution was determined using ICP-MS.\nAll chemicals and solvents were purchased commercially and used without further purification. NMR spectra were recorded on either a 500 MHz or 400 MHz Varian spectrometers. Chemical shifts are reported in δ (ppm). For ^1H and ^13C NMR spectra, the residual solvent peaks were used as internal reference, except for the ^13C NMR of the ligand where tertiary-butanol was used as the internal reference. Liquid chromatography-electrospray mass spectrometry (LC-MS) was performed using an Agilent 1100 Series apparatus with an LC/MSD trap and Daly conversion dynode detector with UV detection at 220, 254 and 280 nm. The methods used on this system are as follows: (a) Luna C18 column (100×2 mm); eluent A: H2O/0.1% formic acid, B: MeCN/0.1% formic acid; gradient: 5% B to 95% B over 9 minutes; flow rate 0.8 mL/min (used for characterization of organic compounds), and (b) Kromasil C18 column (250×4.6 mm); eluent C: 95% MeCN/5% 10 mM ammonium acetate, D: 10 mM ammonium acetate; gradient 5% C to 8% C over 14 minutes; flow rate 0.8 ml/min (used for characterization of manganese complexes). Reversed-phase semipreparative purification was performed on the Rainin Dynamax HPLC system with UV detection at 254 nm using a Polaris C18 column. The method used for purification is as follows: The mobile phase A was 50 mM ammonium acetate buffer, pH 6.5 and mobile phase B was a mixture of 5% 50 mM ammonium acetate buffer, pH 6.5/95% MeCN. Starting from 5% B, the fraction of B increased to 8% over 23 minutes. […]"}, "[2]": {"test": "T1 measurement by MR imaging at 4.7 T (Bruker Biospec)", "settings": "room temperature, pH 7.4 TRIS buffer", "protocol": "Right: relaxivities measured at room temperature at 4.7 T.\nMR imaging was performed using a Bruker Biospec 4.7T system. Three samples (˜500 μL) were placed in a homemade sample holder and imaged using a volume coil. Acquisition matrix=64×256 for 0.234×0.312 mm^2 in-plane resolution; slice thickness=5 mm. T1-weighted images were obtained with a fast low angle shot (FLASH) gradient echo sequence: TR/TE/FA=20/5.44/40° with 8 averages. T1 was determined using a 2D rapid acquisition refocused echo (RARE) inversion recovery sequence: TR=3200 ms, TE=9.7 ms. Inversion times (TI): 5, 45, 85, 165, 325, 645, 1285, 1925 and 3205 ms. T1 was obtained from a nonlinear least square fit of the signal intensity (SI(t)) vs. TI curve where T1, SI(0) and a are adjustable parameters, equation S2.\nSI(t)=SI(0)[1−α,e^TI/T1] (eq. S2)"}, "[3]": {"test": "Cyclic voltammetry of the Mn(III)/Mn(II) redox couple", "protocol": "Potentials are vs. K4Fe(CN)6/K3Fe(CN)6; and in (b), a Cottrell plot of the Mn^2+/Mn^3+ couple—ia, (decreasing line) and ic (increasing line) vs. √v, where v=scan rate.\nas §1"}, "[4]": {"test": "UV spectrum as a function of pH (phenol deprotonation pKa)", "settings": "fit of UV absorbance vs pH", "protocol": "To probe the speciation of the manganese complexes in solution, pH titrations of 1:1 Mn^2+:ligand were performed using a 1 N NaOH under N2 atmosphere (FIG. 21).\nTo determine the species that exists in these two pH ranges the UV spectrum as a function of pH was monitored (see FIGS. 22-24)."}, "[5]": {"test": "Stability of manganese complexes in buffers", "protocol": "The stability of the manganese complexes were measured in different buffers using concentrations similar to those found in the blood plasma (1 mM phosphate buffer, 25 mM sodium bicarbonate buffer and 0.1 mM citrate buffer). A solution, 0.5 mM, of the manganese complex was incubated in the respective buffers at 37° C. (pH=7.4) and the species were then quantified on the LC-MS using the method as described earlier. The manganese complexes (0.5 mM) were also treated with EDTA (0.5 mM) in TRIS buffer (pH=7.4) and incubated at 37° C. for 1 hour. The species were then quantified on the LC-MS using the method as described earlier."}}, "data": [{"smiles": "O=C([O-])CN(CCN(CC(=O)[O-])Cc1ccccc1[O-])CC(=O)[O-].[Mn+2].[Na+].[Na+]", "note": "[Compound 4, Na2[Mn^IIHBET]]", "values": [{"measurement": "T1 relaxivities", "setting": "[1]; 1.4 T, Tris buffered saline pH 7.4, 37° C.", "value": 2.76, "unit": "mM⁻¹ s⁻¹"}, {"measurement": "r1 (relaxivity of manganese complexes)", "setting": "[1]; pH 7.4, 37° C., 1.4 Tesla", "value": 2.76, "unit": "mM⁻¹ s⁻¹"}, {"measurement": "fold higher relaxivity of reduced Mn^II-HBET form vs Mn^III-HBET", "setting": "[2]", "value": 3.3, "unit": "fold"}, {"measurement": "reversible oxidation peak", "setting": "[3]; TRIS buffer pH 7.4, vs. K4Fe(CN)6/K3Fe(CN)6", "value": 0.356, "unit": "V"}, {"measurement": "Half-cell potential vs. normal hydrogen electrode (NHE)", "setting": "[3]; pH 7.4, vs. NHE", "value": 379, "unit": "mV"}, {"measurement": "pKa for ionization of the phenol", "setting": "[4]", "value": 7.64}, {"measurement": "stability in phosphate and carbonate buffers", "setting": "[5]", "value": "stable"}]}]}
